Assay results as given in ChEMBL document CHEMBL4622849, “Discovery of ethyl ketone-based HDACs 1, 2, and 3 selective inhibitors for HIV latency reactivation” (Bioorg Med Chem Lett, 2020).

Columns and labels:
[1] = tested on: Human immunodeficiency virus; assay: microbe, parasite or virus in culture; format: functional, organism-based; conditions: Human immunodeficiency virus 1, 2C4
Description: Reactivation of HIV latency infected in human 2C4 cells in presence of 0.1 % NHS by luciferase reporter gene assay

[2] = tested on: Human immunodeficiency virus; assay: microbe, parasite or virus in culture; format: functional, organism-based; conditions: Human immunodeficiency virus 1, 2C4; remark: listed apart in the source
[3] = biological target: Histone deacetylase 2 (Homo sapiens, UniProt Q92769)
Histone deacetylase 2, sequence (Q92769 whole entry): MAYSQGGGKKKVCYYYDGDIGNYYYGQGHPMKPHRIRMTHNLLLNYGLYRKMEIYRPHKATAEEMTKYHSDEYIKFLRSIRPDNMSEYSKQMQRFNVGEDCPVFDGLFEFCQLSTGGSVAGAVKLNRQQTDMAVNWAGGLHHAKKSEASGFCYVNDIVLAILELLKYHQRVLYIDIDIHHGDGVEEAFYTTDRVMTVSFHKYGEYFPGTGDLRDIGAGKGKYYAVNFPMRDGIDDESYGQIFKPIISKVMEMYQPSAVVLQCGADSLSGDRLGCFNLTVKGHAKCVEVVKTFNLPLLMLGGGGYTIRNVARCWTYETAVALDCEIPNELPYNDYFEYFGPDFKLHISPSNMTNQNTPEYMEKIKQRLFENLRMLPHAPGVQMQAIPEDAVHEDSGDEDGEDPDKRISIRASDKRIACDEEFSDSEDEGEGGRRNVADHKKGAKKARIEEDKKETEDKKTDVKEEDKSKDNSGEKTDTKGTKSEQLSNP
Description: Inhibition of HDAC2 (unknown origin)

[4] = biological target: T1, Histone deacetylase 8 (Homo sapiens, UniProt Q9BY41); format: ADME
T1 sequence (Q9BY41 whole entry): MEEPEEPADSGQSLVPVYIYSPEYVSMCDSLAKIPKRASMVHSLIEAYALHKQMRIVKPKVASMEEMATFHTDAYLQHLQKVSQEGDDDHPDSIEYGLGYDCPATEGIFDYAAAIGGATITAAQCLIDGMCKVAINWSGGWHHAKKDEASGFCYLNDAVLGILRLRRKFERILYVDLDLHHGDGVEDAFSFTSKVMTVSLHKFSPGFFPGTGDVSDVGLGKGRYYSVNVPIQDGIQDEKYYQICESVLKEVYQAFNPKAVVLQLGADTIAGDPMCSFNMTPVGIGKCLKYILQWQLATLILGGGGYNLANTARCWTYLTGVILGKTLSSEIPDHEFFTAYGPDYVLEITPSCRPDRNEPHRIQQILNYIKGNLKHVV
Description: Inhibition of HDAC8 (unknown origin)

[5] = biological target: T2, Protein deacetylase HDAC6 (Homo sapiens, UniProt Q9UBN7); format: ADME
T2 sequence (Q9UBN7 whole entry): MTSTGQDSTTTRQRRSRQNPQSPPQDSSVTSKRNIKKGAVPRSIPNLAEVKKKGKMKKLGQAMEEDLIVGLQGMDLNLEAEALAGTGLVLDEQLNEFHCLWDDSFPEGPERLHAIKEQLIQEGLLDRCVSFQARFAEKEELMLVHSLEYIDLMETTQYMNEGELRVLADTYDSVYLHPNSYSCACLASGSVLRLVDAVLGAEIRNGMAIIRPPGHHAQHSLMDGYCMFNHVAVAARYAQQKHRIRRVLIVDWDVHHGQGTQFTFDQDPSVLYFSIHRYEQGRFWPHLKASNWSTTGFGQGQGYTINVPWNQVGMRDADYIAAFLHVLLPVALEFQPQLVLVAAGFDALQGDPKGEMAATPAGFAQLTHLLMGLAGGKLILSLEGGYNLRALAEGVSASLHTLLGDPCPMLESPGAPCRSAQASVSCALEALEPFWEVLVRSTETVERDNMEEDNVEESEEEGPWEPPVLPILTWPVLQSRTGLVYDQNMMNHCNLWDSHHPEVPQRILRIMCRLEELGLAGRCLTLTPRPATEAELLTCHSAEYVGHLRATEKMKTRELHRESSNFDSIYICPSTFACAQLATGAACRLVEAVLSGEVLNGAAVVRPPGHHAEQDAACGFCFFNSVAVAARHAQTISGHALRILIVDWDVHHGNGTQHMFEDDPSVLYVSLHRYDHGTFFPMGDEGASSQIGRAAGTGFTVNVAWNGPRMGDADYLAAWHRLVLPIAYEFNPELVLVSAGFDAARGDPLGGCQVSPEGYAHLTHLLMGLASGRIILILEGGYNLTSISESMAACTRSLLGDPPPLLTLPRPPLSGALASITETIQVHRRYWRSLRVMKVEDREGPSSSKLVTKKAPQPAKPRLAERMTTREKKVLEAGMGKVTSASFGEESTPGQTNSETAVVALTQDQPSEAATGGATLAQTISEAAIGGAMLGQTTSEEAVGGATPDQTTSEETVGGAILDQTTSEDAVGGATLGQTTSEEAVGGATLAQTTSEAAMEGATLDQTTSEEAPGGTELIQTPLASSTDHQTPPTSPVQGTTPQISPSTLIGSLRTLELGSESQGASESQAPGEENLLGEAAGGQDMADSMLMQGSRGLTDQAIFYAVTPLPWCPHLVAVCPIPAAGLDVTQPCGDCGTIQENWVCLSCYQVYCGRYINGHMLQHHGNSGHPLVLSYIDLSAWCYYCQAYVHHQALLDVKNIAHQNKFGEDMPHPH
Description: Inhibition of HDAC6 (unknown origin)

[6] = biological target: Histone deacetylase 1 (Homo sapiens, UniProt Q13547)
Histone deacetylase 1, sequence (Q13547 whole entry): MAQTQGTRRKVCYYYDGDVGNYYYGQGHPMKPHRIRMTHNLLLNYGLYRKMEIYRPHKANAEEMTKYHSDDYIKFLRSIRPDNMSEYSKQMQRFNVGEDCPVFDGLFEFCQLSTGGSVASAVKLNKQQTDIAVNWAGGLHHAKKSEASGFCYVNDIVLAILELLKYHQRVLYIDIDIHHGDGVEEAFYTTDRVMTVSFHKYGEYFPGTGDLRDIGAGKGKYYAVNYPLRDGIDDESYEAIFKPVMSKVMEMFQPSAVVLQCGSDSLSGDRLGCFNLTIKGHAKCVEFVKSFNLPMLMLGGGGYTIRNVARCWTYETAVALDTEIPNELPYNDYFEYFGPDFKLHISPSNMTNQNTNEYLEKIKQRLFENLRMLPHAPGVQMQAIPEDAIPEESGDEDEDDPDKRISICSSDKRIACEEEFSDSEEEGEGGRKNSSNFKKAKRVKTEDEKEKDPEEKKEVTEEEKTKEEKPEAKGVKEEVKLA
Description: Inhibition of HDAC1 (unknown origin)

[7] = AUC in Wistar Han rat at 10 mg/kg, po; format: ADME, organism-based; conditions: in vivo
[8] = Half life in Wistar Han rat at 2 mg/kg, iv or 10 mg/kg, po; format: ADME, organism-based; conditions: in vivo
[9] = Oral bioavailability in Wistar Han rat at 10 mg/kg; format: ADME, organism-based; conditions: in vivo
[10] = Clearance in Wistar Han rat at 2 mg/kg, iv or 10 mg/kg, po; format: ADME, organism-based; conditions: in vivo
[11] = Cmax in Wistar Han rat at 10 mg/kg, po; format: ADME, organism-based; set-up: dose 10 mg/kg, route oral; conditions: in vivo

Structure (SMILES)	EC50 [1] [nM]	EC50 [2] [nM]	further results
CCC(=O)CCCCC[C@H](NC(=O)C1CN(C)C1)c1ncc(-c2cc3ccccc3nc2OC)[nH]1	110	477	
CCC(=O)CCCCC[C@H](NC(=O)[C@H]1CC12CCN(CC(F)(F)F)CC2)c1ncc(-c2cc3ccccc3nc2OC)[nH]1	112	719	
CCC(=O)CCCCC[C@H](NC(=O)[C@H]1CC12CCCN(C)C2)c1ncc(-c2cc3ccccc3nc2OC)[nH]1 (some centres not stated)	81	324	
CCC(=O)CCCCC[C@H](NC(=O)C1=NOC2(CCN(C)CC2)C1)c1ncc(-c2cc3ccccc3nc2OC)[nH]1	126	941	IC50 [3]: 5.2 nM
CCC(=O)CCCCC[C@H](NC(=O)[C@H]1C[C@@]12CCN(C)C2)c1ncc(-c2cc3ccccc3nc2OC)[nH]1	73	321	
CCC(=O)CCCCC[C@H](NC(=O)[C@H]1CC12CCN(CC)CC2)c1nnc(-c2cc3ccccc3nc2OC)[nH]1	1230	1880	IC50 [4]: 2990 nM; IC50 [5]: 95 nM
CCC(=O)CCCCC[C@H](NC(=O)[C@H]1CC12CCN(C(C)=O)CC2)c1ncc(-c2cc3ccccc3nc2OC)[nH]1	1560	9850	IC50 [4]: 2270 nM; IC50 [5]: 1170 nM
CCC(=O)CCCCC[C@H](NC(=O)[C@H]1CC12CN(C)C2)c1ncc(-c2cc3ccccc3nc2OC)[nH]1	155	633	IC50 [4]: 2020 nM; IC50 [5]: 299 nM
CCC(=O)CCCCC[C@H](NC(=O)[C@@H]1CC12CCCN(C)C2)c1ncc(-c2cc3ccccc3nc2OC)[nH]1 (some centres not stated)	257	1010	
CCC(=O)CCCCC[C@H](NC(=O)C1CCC2(CC1)CN(C)C2)c1ncc(-c2cc3ccccc3nc2OC)[nH]1	85	687	
CCC(=O)CCCCC[C@H](NC(=O)[C@H]1CCC12CCN(CC)CC2)c1ncc(-c2cc3ccccc3nc2OC)[nH]1	43	110	
CCC(=O)CCCCC[C@H](NC(=O)[C@@H]1CC12CN(C)C2)c1ncc(-c2cc3ccccc3nc2OC)[nH]1	74	287	
CCC(=O)CCCCC[C@H](NC(=O)CC1CC2(C1)CN(C)C2)c1ncc(-c2cc3ccccc3nc2OC)[nH]1	130	810	IC50 [6]: 1 nM
CCC(=O)CCCCC[C@H](NC(=O)[C@H]1CC12CCN(Cc1cccnc1)CC2)c1ncc(-c2cc3ccccc3nc2OC)[nH]1	62	277	
CCC(=O)CCCCC[C@H](NC(=O)[C@@H]1CC12CCN(C)CC2)c1ncc(-c2cc3ccccc3nc2OC)[nH]1	339	1370	
CCCN1CCC2(CC1)C[C@@H]2C(=O)N[C@@H](CCCCCC(=O)CC)c1ncc(-c2cc3ccccc3nc2OC)[nH]1	154	895	
CCC(=O)CCCCC[C@H](NC(=O)[C@@H]1C[C@@]12CCN(C)C2)c1ncc(-c2cc3ccccc3nc2OC)[nH]1	309	1150	

Structure (SMILES)	EC50 [1] [nM]	EC50 [2] [nM]	further results
CCC(=O)CCCCC[C@H](NC(=O)[C@H]1CC12CCN(C)CC2)c1nnc(-c2cc3ccccc3nc2OC)[nH]1	1620	2580	IC50 [4]: 1930 nM; IC50 [5]: 92 nM
CCC(=O)CCCCC[C@H](NC(=O)C1CC2(C1)CN(C)C2)c1ncc(-c2cc3ccccc3nc2OC)[nH]1	130	840	
CCC(=O)CCCCC[C@H](NC(=O)[C@H]1CC12CCC(N(C)C)CC2)c1ncc(-c2cc3ccccc3nc2OC)[nH]1 (some centres not stated)	36	60	IC50 [4]: 75 nM; IC50 [5]: 363 nM
CCC(=O)CCCCC[C@H](NC(=O)[C@H]1CC12CCN(CCC(F)(F)F)CC2)c1ncc(-c2cc3ccccc3nc2OC)[nH]1	78	343	
CCC(=O)CCCCC[C@H](NC(=O)[C@H]1CC12CCN(C(C)C)CC2)c1ncc(-c2cc3ccccc3nc2OC)[nH]1	32	57	
CCC(=O)CCCCC[C@H](NC(=O)[C@H]1C[C@]12CCN(C)C2)c1ncc(-c2cc3ccccc3nc2OC)[nH]1	72	232	
CCC(=O)CCCCC[C@H](NC(=O)[C@H]1CC12CCN(Cc1ccccc1)CC2)c1ncc(-c2cc3ccccc3nc2OC)[nH]1	74	175	
CCC(=O)CCCCC[C@H](NC(=O)[C@H]1CC12CCN(C)CC2)c1nnc(-c2cc3ccccc3nc2OC)o1	689	691	IC50 [4]: 45000 nM
CCC(=O)CCCCC[C@H](NC(=O)[C@@H]1C[C@]12CCN(C)C2)c1ncc(-c2cc3ccccc3nc2OC)[nH]1	261	1140	IC50 [5]: 149 nM
CCC(=O)CCCCC[C@H](NC(=O)[C@@H]1CC12CCOCC2)c1ncc(-c2cc3ccccc3nc2OC)[nH]1	647	5040	
CCC(=O)CCCCC[C@H](NC(=O)[C@@H]1CC12CCC(N(C)C)CC2)c1ncc(-c2cc3ccccc3nc2OC)[nH]1 (some centres not stated)	441	1140	IC50 [4]: 5580 nM; IC50 [5]: 759 nM
CCC(=O)CCCCC[C@H](NC(=O)[C@@H]1CCC12CCN(CC)CC2)c1ncc(-c2cc3ccccc3nc2OC)[nH]1	161	720	IC50 [4]: 2330 nM; IC50 [5]: 518 nM
CCC(=O)CCCCC[C@H](NC(=O)[C@H]1CC12CCN(Cc1ccc(OC)cc1)CC2)c1ncc(-c2cc3ccccc3nc2OC)[nH]1	113	180	
CCC(=O)CCCCC[C@H](NC(=O)[C@H]1CC12CCN(CC)CC2)c1ncc(-c2cc3ccccc3nc2OC)o1	111	151	AUC [7]: 14 µM·h; half-life [8]: 8.6 h; bioavailability [9]: 68.9%; clearance [10]: 15 mL/min/kg; Cmax [11]: 1430 nM
CCC(=O)CCCCC[C@H](NC(=O)[C@H]1CC12CCN(CC1CC1)CC2)c1ncc(-c2cc3ccccc3nc2OC)[nH]1	15	30	
CCC(=O)CCCCC[C@H](NC(=O)[C@H]1CC12CCOCC2)c1ncc(-c2cc3ccccc3nc2OC)[nH]1	234	1790	
CCC(=O)CCCCC[C@H](NC(=O)[C@H]1CC12CCN(C(C)C)CC2)c1ncc(-c2cc3ccccc3nc2OC)o1	161	309	IC50 [6]: 3.5 nM
